Measured values published in patent US10525056B2, “Procaspase-activating compounds and methods” (The Board of Trustees of the University of Illinois, priority 2011, dated 2020).
Like-named read-outs stand apart in the source and are kept apart here.

How the values were obtained:
[1] = test system: U-937 human lymphoma cells; test: 72 Hour IC50 Cell Death Assay (sulforhodamine B); type: cell-based; settings: read-out: 72-hour IC50 (μM), U-937 cells, 72 h treatment, average ± SEM of three experiments
Procedure: U-937 human lymphoma cells were plated into the wells of 96 well plate at a density of 15,000 cells per well in 99 μL of RPMI 1640 growth media with 10% FBS and 1% pen-strep. To each well was added 1 μL of compound stock solutions in DMSO at varying concentrations such that the cells were treated with concentrations between 0 μM and 100 μM compound. Each concentration was tested in quintuplicate per plate. In each plate 5 wells received 20 μM doxorubicin as a positive death control and 5 wells received […] as a negative control.
After the 72 hour incubation period, the plates were analyzed using a Sulforhodamine B assay (Vichai and Kirtikara, Nat Protoc 2006, 1, 1112-1116). Specifically, to each well of the plate 25 μL of a 50% (w/v) solution of trichloroacetic acid in H2O was added and the plates were incubated for 4 hours at 4° C. The plates were then washed gently with water five times. The plates were allowed to air dry after which 100 μL of a 0.057% (w/v) Sulforhodamine B in a 1% (v/v) acetic acid solution was added to each well for 30 minutes at room temperature. The plates were gently washed 5 times with 1% (v/v) acetic acid and air dried. 200 μL of 10 mM Tris base (pH 10.4) was added to each well and the plates were placed on an orbital shaker for thirty minutes. The level of SRB was quantified fluorometrically at excitation and emission wavelengths 488 and 585 nm, respectively, on a Molecular Devices plate reader and the percent cell death calculated and normalized to the positive control (100% cell death) and the negative control (0% cell death). The percent cell death was averaged for each compound concentration and plotted as a function of compound concentration. The data were fit to a logistical dose response curve using Table curve 2D and the IC50 value was calculated. The experiment was repeated three times and the average of the calculated IC50 values was reported. The standard error of the mean (SEM) was determined and reported for the triplicate experiments.

[2] = test system: U-937 cells; test: Induction of apoptosis by hit compounds (Annexin V-FITC/propidium iodide flow cytometry); type: cell-based; settings: Homo sapiens, 7.5 μM compound, 24 hours
Procedure: U-937 Cells (1 mL of 6×10^5 cells/mL) were treated with 10 μL of 750 μM DMSO solutions of the compounds to achieve a final concentration of 7.5 μM. […] The cells were harvested via centrifugation (200 g for 5 minutes), washed with PBS (2 mL), and resuspended in 450 μL Annexin V Binding Buffer. To each sample was added 3.5 μL of FITC conjugated Annexin V stain (Southern Biotech) and 3.5 μL of propidium iodide (Sigma) to a final concentration of 50 μg/mL. Cell populations were analyzed on a Benton Dickinson LSR II cell flow cytometer.

[3] = research dogs, for 48 hours; cited from earlier work
[4] = test system: U-937 human lymphoma cells; test: Cell death assay for initial screen (Annexin V-FITC/propidium iodide flow cytometry); type: cell-based; settings: U-937 cells, 20 μM compound, 24 hours
Procedure: Apoptotic cell death was assessed by flow cytometry, using Annexin V-FITC/propidium iodide staining.
Compound (2 μL of a 10 mM DMSO solution) was added in singlet by direct addition to a well containing 998 μL U-937 cells (1×10^6) in RPMI 1640 media (10% FBS) at a final compound concentration of 20 μM. […] The cells were double stained with FITC-Annexin V and propidium iodide and a cell population of at least 10,000 events was collected by the LSR II flow cytometer. Percent viable cells (Annexin V—negative, propidium iodide—negative) were determined using FCS Express software.

[5] = mice, for 48 hours; cited from earlier work

## C=CCc1cccc(/C=N/NC(=O)CN2CCN(Cc3ccc(C(C)(C)C)cc3)CC2)c1O [3{20,24}, N′-(3-allyl-2-hydroxybenzylidene)-2-(4-(4-(tert-butyl)benzyl)piperazin-1-yl)acetohydrazide]
[1]
  IC50: 0.9 ± 0.03 µM
[2]
  cytotoxicity at 7.5 µM: 83%

## C=CCc1cccc(/C=N/NC(=O)CN2CCN(Cc3ccccc3)CC2)c1O [PAC-1]
[1]
  IC50: 3.8 ± 0.4 µM
[3]
  serum concentration at doses that can be safely administered: ~10 µM
[4]
  % cell death: ~50%
[5]
  serum concentration at doses that can be safely administered: ~10 µM
[2]
  cytotoxicity at 7.5 µM: 21%

## CC(C)(C)c1cc(/C=N/NC(=O)CN2CCN(Cc3ccc4ccccc4c3)CC2)c(O)c(C(C)(C)C)c1 [3{25,7}, N′-(3,5-di-tert-butyl-2-hydroxybenzylidene)-2-(4-(naphthalen-2-ylmethyl)piperazin-1-yl)acetohydrazide]
[1]
  IC50: 1 ± 0.04 µM
[2]
  cytotoxicity at 7.5 µM: 50%

## CC(C)(C)c1cc(/C=N/NC(=O)CN2CCN(Cc3ccc(OCc4ccccc4)cc3)CC2)c(O)c(C(C)(C)C)c1 [3{18,7}, 2-(4-(4-(benzyloxy)benzyl)piperazin-1-yl)-N′-(3,5-di-tert-butyl-2-hydroxybenzylidene)acetohydrazide]
[1]
  IC50: 1.4 ± 0.2 µM
[2]
  cytotoxicity at 7.5 µM: 97%

## COc1ccc(OC)c(CN2CCN(CC(=O)N/N=C/c3cc(C(C)(C)C)cc(C(C)(C)C)c3O)CC2)c1 [3{4,7}, N′-(3,5-di-tert-butyl-2-hydroxybenzylidene)-2-(4-(2,5-dimethoxybenzyl)piperazin-1-yl)acetohydrazide]
[1]
  IC50: 1.6 ± 0.2 µM
[2]
  cytotoxicity at 7.5 µM: 53%

## COc1ccc(CN2CCN(CC(=O)N/N=C/c3cc(C(C)(C)C)cc(C(C)(C)C)c3O)CC2)cc1 [3{2,7}, N′-(3,5-di-tert-butyl-2-hydroxybenzylidene)-2-(4-(4-methoxybenzyl)piperazin-1-yl)acetohydrazide]
[1]
  IC50: 1.8 ± 0.2 µM
[2]
  cytotoxicity at 7.5 µM: 90%

## CCc1ccc(CN2CCN(CC(=O)N/N=C/c3cc(C(C)(C)C)cc(C(C)(C)C)c3O)CC2)cc1 [3{28,7}, N′-(3,5-di-tert-butyl-2-hydroxybenzylidene)-2-(4-(4-ethylbenzyl)piperazin-1-yl)acetohydrazide]
[1]
  IC50: 2 ± 0.2 µM
[2]
  cytotoxicity at 7.5 µM: 70%
